This experiment addresses T1, bovine thrombin (Bos taurus, UniProt P00735).
T1 construct: bovine thrombin and argatroban were purchased from Sigma-Aldrich; purchased Sigma-Aldrich (St. Louis, MO, USA)
Nature of the experiment: Thrombin inhibitory activity assay (chromogenic substrate S-2238).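 For all read-outs here: microplate absorbance read-out, thrombin preincubated with test compound 5 min at 37 °C in PBS pH 7.2-7.4, inhibition relative to blank without compound after subtracting compound-only background.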 It is filed as biochemical. Particulars: for Group (inhibitor class) / inhibitor class: class by anti-thrombin IC50.

Where [1] appears, read: Table 1, anti-thrombin, substrate S-2238 4 mg/mL, read-out: IC50.
Where [2] appears, read: Table 2, anti-thrombin, read-out: IC50 ±SD.
Where [3] appears, read: thrombin inhibition, substrate 4 mg/mL, read-out: IC50.

Like-named read-outs stand apart in the source and are kept apart here.

Regarding `O=C(OC1Cc2c(O)cc(O)cc2OC1c1ccc(O)c(O)c1)c1cc(O)c(O)c(O)c1` (single isomer, unassigned; (-)) [(-)-Epicatechin gallate], the IC50 under setting [1] was more than 500 µM.
With `Oc1cc(O)c2c(c1)OC(c1cc(O)c(O)c(O)c1)C(O)C2` (single isomer, unassigned; (-)) [(-)-epigallocatechin], the IC50 (IC50) was more than 500 µM.
In the case of `O=c1cc(-c2ccc(O)cc2)oc2cc(O)cc(O)c12` [Apigenin], the “Group (inhibitor class)” value (Table 2) is “Strong inhibitor”.
As to `O=c1c(OC2OC(CO)C(O)C(O)C2O)c(-c2ccc(O)cc2)oc2cc(O)cc(O)c12` (stereo not drawn) [Astragaline], the inhibitor class result is “weak thrombin inhibitors (classified as weak thrombin inhibitors since their IC50 values ranged from 200 μM to 500 μM)”. Further, the IC50 under setting [1] amounted to 217 ± 5 µM.
For `O=c1cc(-c2ccccc2)oc2cc(O)c(O)c(O)c12` [Baicalein], the inhibitor class entry is “weak thrombin inhibitors (classified as weak thrombin inhibitors since their IC50 values ranged from 200 μM to 500 μM)”. For the same molecule, the IC50 under setting [1] turned out to be 249 ± 31 µM.
As to `O=C(O)[C@H]1O[C@@H](Oc2cc3oc(-c4ccccc4)cc(=O)c3c(O)c2O)[C@H](O)[C@@H](O)[C@@H]1O` [Baicalin], the IC50 is, setting by setting: under setting [1], 88.6 ± 8.2 µM; under setting [2], 88.6 ± 8.2 µM. For the same molecule, the “Group (inhibitor class)” value (Table 2) was “Strong inhibitor”.
Consider `O=C1c2c(O)cc(O)cc2O[C@H](c2cc(O)c(O)c(O)c2)[C@H]1O` [Dihydromyricetin], for which, under setting [1], the IC50 is more than 500 µM.
Same read-out and setting: to `O=C1c2c(O)cc(O)cc2O[C@H](c2ccc(O)c(O)c2)[C@H]1O` [Dihydroquercetin] belongs more than 500 µM.
On to `COc1ccc(-c2cc(=O)c3c(O)cc(O)cc3o2)cc1O` [Diosmetin], for which the inhibitor class result is “moderate inhibitors (compounds with IC50 value ranging from 100 μM to 200 μM were considered as moderate inhibitors)”. Further, the “Group (inhibitor class)” value (Table 2) is on record as “Moderate inhibitor”.
Turning to `Oc1cc(O)c2c(c1)O[C@H](c1ccc(O)c(O)c1)[C@H](O)C2` [Epicatechin], the IC50 under setting [1] was more than 500 µM.
As for `O=c1c(O)c(-c2ccc(O)c(O)c2)oc2cc(O)ccc12` [Fisetin], the inhibitor class result is “moderate inhibitors (compounds with IC50 value ranging from 100 μM to 200 μM were considered as moderate inhibitors)”. For the same molecule, the IC50 under setting [1] was found to be 175 ± 18 µM. Further, the “Group (inhibitor class)” value (Table 2) is recorded as “Moderate inhibitor”.
As for `O=c1c(O)c(-c2ccccc2)oc2cc(O)cc(O)c12` [Galangin], the inhibitor class entry was “moderate inhibitors (compounds with IC50 value ranging from 100 μM to 200 μM were considered as moderate inhibitors)”. The IC50 under setting [1] was found to be 159 µM. For the same molecule, under setting [2], the IC50 amounted to 159 µM. Moreover, the “Group (inhibitor class)” value (Table 2) is recorded as “Moderate inhibitor”.
As to `COc1cc(O)c2c(=O)cc(-c3ccc(O)cc3)oc2c1` [Genkwanin], the inhibitor class entry is recorded as “weak thrombin inhibitors (classified as weak thrombin inhibitors since their IC50 values ranged from 200 μM to 500 μM)”. Moreover, the IC50 under setting [1] was 212 ± 30 µM. For the same molecule, the IC50 under setting [3] amounted to 211 µM.
Take `O=c1c(O)c(-c2ccc(O)cc2)oc2c(O)c(O)cc(O)c12` [Herbacetin]: the inhibitor class entry is given as “moderate inhibitors (compounds with IC50 value ranging from 100 μM to 200 μM were considered as moderate inhibitors)”. Further, under setting [1], the IC50 stood at 133 ± 4 µM. The half-maximal inhibitory concentration (IC50) under setting [2] was determined as 133 ± 4 µM. The “Group (inhibitor class)” value (Table 2) is reported as “Moderate inhibitor”.
Consider `COc1ccc([C@@H]2CC(=O)c3c(O)cc(O)cc3O2)cc1O` [Hesperetin], for which the IC50 under setting [1] was more than 500 µM.
As to `COc1ccc([C@@H]2CC(=O)c3c(O)cc(O[C@@H]4O[C@H](CO[C@@H]5O[C@@H](C)[C@H](O)[C@@H](O)[C@H]5O)[C@@H](O)[C@H](O)[C@H]4O)cc3O2)cc1O` [Hesperidin], the half-inhibitory concentration (IC50) under setting [1] is more than 500 µM.
As for `COc1c(O)cc2oc(-c3ccc(O)cc3)cc(=O)c2c1O` [Hispidulin], the inhibitor class entry is “moderate inhibitors (compounds with IC50 value ranging from 100 μM to 200 μM were considered as moderate inhibitors)”. The IC50 under setting [1] was found to be 126 ± 6 µM. Moreover, the IC50 under setting [2] is 126 ± 6 µM. Further, the “Group (inhibitor class)” value (Table 2) is given as “Moderate inhibitor”.
Take `COc1cc(O)c2c(=O)cc(-c3ccc(O)c(O)c3)oc2c1` [Hydroxygenkwanin]: the IC50 worked out at 99.7 ± 5.5 µM under setting [1] and 99.7 ± 5.5 µM under setting [2]. In addition, the “Group (inhibitor class)” value (Table 2) was “Strong inhibitor”.
In the case of `O=c1c(O[C@@H]2O[C@H](CO)[C@@H](O)[C@H](O)[C@H]2O)c(-c2ccc(O)c(O)c2)oc2cc(O)cc(O)c12` [Isoquercitrin], the 50% inhibitory concentration (IC50) under setting [1] is more than 500 µM.
Still for that read-out and setting: then `COc1cc(-c2oc3cc(O)cc(O)c3c(=O)c2OC2OC(CO)C(O)C(O)C2OC2OC(C)C(O)C(O)C2O)ccc1O` (stereo not drawn) [Isorhamnetin-3-O-neohesperidoside], with more than 500 µM.
`COc1cc(-c2oc3cc(O)cc(O)c3c(=O)c2O)ccc1O` [Isorhamnetin]: where the note is “Table 2”, the “Group (inhibitor class)” value is “Strong inhibitor”.
For `O=c1c(O)c(-c2ccc(O)cc2)oc2cc(O[C@@H]3O[C@H](CO)[C@@H](O)[C@H](O)[C@H]3O)cc(O)c12` [Kaempferol-7-O-β-D-glucopyranoside], the IC50 under setting [1] is more than 500 µM.
Take `O=c1c(O)c(-c2ccc(O)cc2)oc2cc(O)cc(O)c12` [Kaempferol]: the inhibitor class result is “moderate inhibitors (compounds with IC50 value ranging from 100 μM to 200 μM were considered as moderate inhibitors)”. In addition, under setting [1], the IC50 was 107 ± 2 µM. In addition, under setting [2], the IC50 is 107 ± 2 µM. In addition, for the setting “Table 2”, the “Group (inhibitor class)” value was “Moderate inhibitor”.
Take `O=c1cc(-c2ccc(O)c(O)c2)oc2cc(O)cc(O)c12` [Luteolin]: the inhibitor class result is on record as “moderate inhibitors (compounds with IC50 value ranging from 100 μM to 200 μM were considered as moderate inhibitors)”. The IC50 under setting [1] amounted to 146 ± 10 µM. In addition, for the setting “Table 2”, the “Group (inhibitor class)” value is recorded as “Moderate inhibitor”.
With `O=c1cc(-c2ccc(O)c(O)c2)oc2cc(O[C@@H]3O[C@H](CO)[C@@H](O)[C@H](O)[C@H]3O)cc(O)c12` [Luteoloside], the inhibitor class result is recorded as “moderate inhibitors (compounds with IC50 value ranging from 100 μM to 200 μM were considered as moderate inhibitors)”. Besides, the IC50 under setting [1] worked out at 155 ± 18 µM. Further, under setting [2], the IC50 amounted to 155 ± 18 µM. Moreover, the “Group (inhibitor class)” value (Table 2) is listed as “Moderate inhibitor”.
In the case of `O=c1c(O)c(-c2ccc(O)cc2O)oc2cc(O)cc(O)c12` [Morin], the inhibitor class entry is given as “weak thrombin inhibitors (classified as weak thrombin inhibitors since their IC50 values ranged from 200 μM to 500 μM)”. Besides, the 50% inhibitory concentration (IC50) under setting [1] is 237 ± 26 µM.
With `O=C1C[C@@H](c2ccc(O)cc2)Oc2cc(O)cc(O)c21` [Naringenin], the IC50 under setting [1] was more than 500 µM.
As for `C[C@@H]1O[C@@H](O[C@H]2[C@H](Oc3cc(O)c4c(c3)O[C@H](c3ccc(O)cc3)CC4=O)O[C@H](CO)[C@@H](O)[C@@H]2O)[C@H](O)[C@H](O)[C@H]1O` [Naringin], the inhibitor class entry is “weak thrombin inhibitors (classified as weak thrombin inhibitors since their IC50 values ranged from 200 μM to 500 μM)”. The concentration for half-maximal inhibition (IC50) under setting [1] is 444 ± 59 µM.
For `C[C@@H]1O[C@@H](OC[C@H]2O[C@@H](Oc3cc(O)c4c(c3)O[C@H](c3ccc(O)cc3)CC4=O)[C@H](O)[C@@H](O)[C@@H]2O)[C@H](O)[C@H](O)[C@H]1O` [Narirutin], under setting [1], the IC50 was more than 500 µM.
In the case of `COc1ccc([C@@H]2CC(=O)c3c(O)cc(O[C@@H]4O[C@H](CO)[C@@H](O)[C@H](O)[C@H]4O[C@@H]4O[C@@H](C)[C@H](O)[C@@H](O)[C@H]4O)cc3O2)cc1O` [Neohesperidin], the IC50 under setting [1] is more than 500 µM.
Still for that read-out and setting: then `Oc1cc(O)c2c(c1)OC(c1ccc(O)c(O)c1)C(O)C2c1c(O)cc(O)c2c1OC(c1ccc(O)c(O)c1)C(O)C2` (stereo not drawn) [Proanthocyanidin B1], with more than 500 µM.
On to `O=c1c(O)c(-c2ccc(O)c(O)c2)oc2cc(O)cc(O)c12` [Quercetin], for which the inhibitor class result was “weak thrombin inhibitors (classified as weak thrombin inhibitors since their IC50 values ranged from 200 μM to 500 μM)”.
Regarding `C[C@@H]1O[C@@H](Oc2c(-c3ccc(O)c(O)c3)oc3cc(O)cc(O)c3c2=O)[C@H](O)[C@H](O)[C@H]1O` [Quercitrin], the IC50 under setting [1] is more than 500 µM.
As to `C[C@@H]1O[C@@H](OC[C@H]2O[C@@H](Oc3c(-c4ccc(O)c(O)c4)oc4cc(O)cc(O)c4c3=O)[C@H](O)[C@@H](O)[C@@H]2O)[C@H](O)[C@H](O)[C@H]1O` [Rutin], the inhibitor class result is “weak thrombin inhibitors (classified as weak thrombin inhibitors since their IC50 values ranged from 200 μM to 500 μM)”. In addition, the IC50 under setting [1] is 274 ± 23 µM.
Turning to `O=c1cc(-c2ccc(O)cc2)oc2cc(O)c(O)c(O)c12` [Scutellarein], the IC50 runs as follows: under setting [1], 70.8 ± 2.7 µM; under setting [2], 70.8 ± 2.7 µM; under setting [3], less than 100 µM. In addition, where the note is “Table 2”, the “Group (inhibitor class)” value is reported as “Strong inhibitor”.
Turning to `COc1cc(-c2oc3cc(O)cc(O)c3c(=O)c2O[C@@H]2O[C@H](CO[C@@H]3O[C@@H](C)[C@H](O)[C@@H](O)[C@H]3O)[C@@H](O)[C@H](O)[C@H]2O[C@@H]2O[C@@H](C)[C@H](O)[C@@H](O)[C@H]2O)ccc1O` [Typhaneoside], under setting [1], the IC50 is more than 500 µM.
On the same count and under the same terms, to `COc1c(O[C@@H]2O[C@H](C(=O)O)[C@@H](O)[C@H](O)[C@H]2O)cc(O)c2c(=O)cc(-c3ccccc3)oc12` [Wogonoside] belongs more than 500 µM.
On to Myricitrin, for which the “Group (inhibitor class)” value (Table 2) is “Strong inhibitor”.

The values above are taken from paper PMC7024217, “Study on Structure Activity Relationship of Natural Flavonoids against Thrombin by Molecular Docking Virtual Screening Combined with Activity Evaluation In Vitro” (Molecules, 2020).
